{
  "source": "patent EP4748837A1",
  "about": "“AROMATIC AMIDE DERIVATIVE, AND PREPARATION METHOD THEREFOR AND USE THEREOF” (Zhejiang Hisun Pharmaceutical Co., Ltd., priority 2023, dated 2025)",
  "key": {"[1]": {"assay": "Pharmacokinetic testing in mice after intragastric administration", "assay_type": "in vivo", "conditions": "ICR mice; for area under the curve (in words) / pharmacokinetic properties (in words) / plasma concentration (in words): oral 10 mg/kg, conclusion; for AUC(0-inf) / half-life / Cmax: male, mouse, oral administration 10 mg/kg, plasma; for AUC(0-inf): read-out: Area under the curve AUC0-∞; for half-life: read-out: Half-life period T1/2 (converted); for Cmax: read-out: Plasma concentration Cmax", "description": "ICR mice were taken as test animals, and intragastrically administered with a control compound AMG650 and compounds 47 and 53 of the present invention, and then drug concentrations in plasma at different moments were determined by an LC/MS/MS method, so as to study pharmacokinetic characteristics of the compounds of the present invention in the mice.\nControl compound AMG650, and Compounds 47 and 53.\nICR mice, male, 20-22 g, purchased from Vital River Laboratory Animal Technology Co., Ltd.\nA proper amount of to-be-tested compound was weighed, proper amounts of DMA, 30% HS-15 and Saline were added in sequence, and the mixture was well mixed by ultrasonic vortex to prepare 1 mg/mL drug preparations respectively, wherein […]: 30% HS-15: Saline=5: 5: 90 (v: v: v).\nICR mice in each to-be-tested compound injection group (9 mice in each group) were fasted overnight and then intragastrically administered with the compound (PO, an administration dosage of the compound was 10 mg/kg and an administration volume of the compound was 10 mL/kg), and were fed 4 hours after administration.\n0.25 hours, 0.5 hours, 1 hour, 2 hours, 4 hours, 6 hours, 8 hours and 24 hours before and after administration, about […] of blood was collected through an orbit, and a complete blood sample was placed in an EDTA-K2-containing anticoagulation tube. The collected blood samples were placed on ice, and plasma was centrifugally separated (centrifugation conditions: 1500 g, 10 minutes). The collected plasma was stored at -40°C - -20°C before analysis.\nA content of the to-be-tested compound in the plasma of the mice after intragastric administration was determined by LC-MS/MS."}, "[2]": {"tested_on": "OVCAR-3 human ovarian adenocarcinoma tumor mass", "assay": "Pharmacodynamic testing in subcutaneous OVCAR-3 xenograft model", "assay_type": "in vivo, BALB/c nude mice", "conditions": "for inhibitory effect on tumor growth (in words): 8 mg/kg, compared with the solvent control group and AMG650; for TGI% / Relative tumor volume (x±S) / Tumor volume (x±S): 35 days after administration, 8 mg/kg po QD, BALB/c nude mice; for Relative tumor volume (x±S) / Tumor volume (x±S): mean value ± standard error; for Tumor volume (x±S): in mm³ (unit assumed)", "description": "Anti-tumor effects and Safeties of the Compounds 47 and 53 of the present invention in a BALB/c nude mouse animal model subjected to subcutaneous xenotransplantation of OVCAR-3 human ovarian adenocarcinoma tumor mass were evaluated.\nBALB/c; nude mice, female, 6-7 weeks old, purchased from Jiangsu Gempharmatech Biotechnology Co., Ltd.\nMice in a solvent control group were given DMA: CrEL: 5%GS=10: 10: 80 (v: v: v). AMG650: a proper amount of AMG-650 was weigned, proper amounts of DMA, CrEL and 5% GS were added in sequence, and the mixture was well mixed by ultrasonic vortex to prepare 0.8 mg/mL drug preparations respectively, wherein DMA: CrEL : 5% GS=10: 10: 80 (v: v: v).\nCompound 47: a proper amount of Compound 47 was added with proper amounts of DMA, CrEL and 5% GS in sequence, and evenly mixed by ultrasonic vortex to prepare 0.8 mg/mL drug preparations respectively, wherein DMA, CrEL and 5% GS=10: 10: 80 (v: v: v).\nCompound 53: a proper amount of Compound 53 was weighed, proper amounts of DMA, CrEL and 5% GS were added in sequence, and the mixture was well mixed by ultrasonic vortex to prepare 0.8 mg/mL drug preparations respectively, wherein DMA: CrEL : 5% GS=10: 10: 80 (v: v: v).\nAn appropriate OVCAR-3 tumor-bearing animal was selected, and a 1 mm×1 mm×1 mm OVCAR-3 tumor mass was acquired aseptically and placed into normal saline for later use, which was used for subcutaneous tumor inoculation in a right side of back of the BALB/c nude mice.\nAbout 1 mm×1 mm×1 mm OVCAR-3 tumor mass was subcutaneously inoculated in the right side of back of the female BALB/c nude mice. When an average tumor volume reached about 100-250 mm^3, the mice were randomly grouped based on tumor size, with 6 mice in each group.\nAnimals in each group were given the test compound once per day according to an animal weight at a fixed time every day by oral administration (po), the animals started to be administered with the test compound for the first time on the day of grouping for 35 consecutive days, and the animal weight was recorded every day.\nThe 1st group (G1) was a solvent control group; and\nThe 2nd-4th groups […] were orally administered with AMG-650, Compound 47 and Compound 53 at an administration dosage of 8 mg/kg once per day (QD)."}},
  "data": [
    {"smiles": "CCS(=O)(=O)Nc1ccc(C(=O)Nc2ccc(-c3ncn(C)n3)c(OCC(F)(F)F)c2)c(N2CCC3(CC2)CC3)c1", "note": "[Example 47, 4-(ethylsulfonamido)-N-(4-(1-methyl-1H-1,2,4-triazol-3-yl)-3-(2,2,2-trifluoroethoxy)pheny 1)-2-(6-azaspiro[2.5]octan-6-yl)benzamide]", "values": [
      {"measurement": "area under the curve (in words)", "setting": "[1]", "value": "large area under the curve"},
      {"measurement": "pharmacokinetic properties (in words)", "setting": "[1]", "value": "good pharmacokinetic properties"},
      {"measurement": "plasma concentration (in words)", "setting": "[1]", "value": "high plasma concentration"},
      {"measurement": "AUC(0-inf)", "setting": "[1]", "value": 44100, "unit": "ng·h/mL"},
      {"measurement": "half-life", "setting": "[1]", "value": 5.45, "unit": "h"},
      {"measurement": "Cmax", "setting": "[1]", "value": 3500, "unit": "ng/mL"},
      {"measurement": "inhibitory effect on tumor growth (in words)", "setting": "[2]", "value": "more significant inhibitory effect on tumor growth"},
      {"measurement": "TGI%", "setting": "[2]", "value": 95.5, "unit": "%"},
      {"measurement": "Relative tumor volume (x±S)", "setting": "[2]", "value": "0.22±0.11"},
      {"measurement": "Tumor volume (x±S)", "setting": "[2]", "value": "40±20"}
    ]},
    {"smiles": "CCS(=O)(=O)Nc1ccc(C(=O)Nc2ccc(-c3ncccn3)c(OCC(F)(F)F)c2)c(N2CCC3(CC2)CC3)c1", "note": "[Example 53, 4-(ethylsulfonamido)-N-(4-(pyrimidin-2-yl)-3-(2,2,2-trifluoroethoxy)phenyl)-2-(6-azaspiro[2.5]octan-6-yl)benzamide]", "values": [
      {"measurement": "area under the curve (in words)", "setting": "[1]", "value": "large area under the curve"},
      {"measurement": "pharmacokinetic properties (in words)", "setting": "[1]", "value": "good pharmacokinetic properties"},
      {"measurement": "plasma concentration (in words)", "setting": "[1]", "value": "high plasma concentration"},
      {"measurement": "AUC(0-inf)", "setting": "[1]", "value": 83700, "unit": "ng·h/mL"},
      {"measurement": "half-life", "setting": "[1]", "value": 12.1, "unit": "h"},
      {"measurement": "Cmax", "setting": "[1]", "value": 5790, "unit": "ng/mL"},
      {"measurement": "inhibitory effect on tumor growth (in words)", "setting": "[2]", "value": "more significant inhibitory effect on tumor growth"},
      {"measurement": "TGI%", "setting": "[2]", "value": 98.0, "unit": "%"},
      {"measurement": "Relative tumor volume (x±S)", "setting": "[2]", "value": "0.10±0.04"},
      {"measurement": "Tumor volume (x±S)", "setting": "[2]", "value": "21±9"}
    ]}
  ]
}
